Experimental data: ChEMBL document CHEMBL1201862, “PubChem BioAssay data set” (2004)
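How tested: cells in 96-well plates exposed to compound for 48 hours at five concentrations. The concentration for 50% growth inhibition is given as GI50.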 Activity calls are given as the source filed them. No stated cut-off is given here; in the data, active = GI50 up to about 1.1 µM and inactive = higher.

Columns and labels:
Experiment in all cases: NCI tumour cell line growth inhibition, 48 h
[1] = system: HOP-62
[2] = system: NCI-H522
[3] = system: MOLT-4
[4] = system: A549
[5] = system: SF-539
[6] = system: OVCAR-4
[7] = system: LOX IMVI
[8] = system: PC-3
[9] = system: RPMI-8226
[10] = system: SW-620
[11] = system: IGROV-1
[12] = system: EKVX
[13] = system: NCI-H226
[14] = system: CAKI-1
[15] = system: T47D
[16] = system: SNB-75
[17] = system: SNB-19
[18] = system: HCC 2998
[19] = system: A498

Compound	GI50 [1]	GI50 [2]	GI50 [3]	GI50 [4]	GI50 [5]	GI50 [6]	GI50 [7]	GI50 [8]	GI50 [9]	GI50 [10]	GI50 [11]	GI50 [12]	GI50 [13]	GI50 [14]	GI50 [15]	GI50 [16]	GI50 [17]	GI50 [18]	GI50 [19]
CCCCCCCCCOC(=O)c1cnc(Cl)cn1	24 µM (inactive)	19 µM (inactive)	52.7 µM (inactive)	26.4 µM (inactive)	25.8 µM (inactive)	27.9 µM (inactive)	19.8 µM (inactive)	6.18 µM (inactive)	21.9 µM (inactive)	17.3 µM (inactive)	20.2 µM (inactive)	22.3 µM (inactive)	18.2 µM (inactive)	16.9 µM (inactive)	22.1 µM (inactive)	22.3 µM (inactive)	20.9 µM (inactive)	–	–
CN(C)c1ccc(/C=C2\Oc3cc(O)ccc3C2=O)cc1	> 100 µM (inactive)	28.1 µM (inactive)	60.8 µM (inactive)	88.1 µM (inactive)	> 100 µM (inactive)	> 100 µM (inactive)	–	> 100 µM (inactive)	74.1 µM (inactive)	48.9 µM (inactive)	> 100 µM (inactive)	> 100 µM (inactive)	> 100 µM (inactive)	> 100 µM (inactive)	> 100 µM (inactive)	79.6 µM (inactive)	> 100 µM (inactive)	> 100 µM (inactive)	–
CC1(C)OCC(COC(=O)NCn2cc(-c3ccccc3)nn2)O1 (stereo unspecified)	> 100 µM (inactive)	> 100 µM (inactive)	> 100 µM (inactive)	> 100 µM (inactive)	> 100 µM (inactive)	> 100 µM (inactive)	> 100 µM (inactive)	> 100 µM (inactive)	> 100 µM (inactive)	> 100 µM (inactive)	> 100 µM (inactive)	> 100 µM (inactive)	> 100 µM (inactive)	> 100 µM (inactive)	–	> 100 µM (inactive)	> 100 µM (inactive)	26.2 µM (inactive)	–
Clc1ccc(/C=C/c2nc3ccccc3s2)cc1Cl	22.9 µM (inactive)	> 100 µM (inactive)	> 100 µM (inactive)	57.8 µM (inactive)	91.8 µM (inactive)	15.6 µM (inactive)	1.42 µM (inactive)	1.69 µM (inactive)	41.7 µM (inactive)	1.73 µM (inactive)	16.9 µM (inactive)	51.8 µM (inactive)	–	19.8 µM (inactive)	1.66 µM (inactive)	12.8 µM (inactive)	30.5 µM (inactive)	97.3 µM (inactive)	–
NNC(=O)c1cc(Cl)ccc1NC(=O)C12CC3CC(CC(C3)C1)C2	45.6 µM (inactive)	25.4 µM (inactive)	12.1 µM (inactive)	20.2 µM (inactive)	42.1 µM (inactive)	21.8 µM (inactive)	32 µM (inactive)	35.3 µM (inactive)	24 µM (inactive)	39.6 µM (inactive)	30.8 µM (inactive)	–	> 100 µM (inactive)	24.2 µM (inactive)	33 µM (inactive)	42.9 µM (inactive)	15.6 µM (inactive)	18.5 µM (inactive)	–
Cc1cc(=O)n2nc(CSc3nnc(S)s3)sc2n1	> 100 µM (inactive)	> 100 µM (inactive)	> 100 µM (inactive)	> 100 µM (inactive)	> 100 µM (inactive)	> 100 µM (inactive)	> 100 µM (inactive)	> 100 µM (inactive)	> 100 µM (inactive)	> 100 µM (inactive)	> 100 µM (inactive)	> 100 µM (inactive)	> 100 µM (inactive)	> 100 µM (inactive)	> 100 µM (inactive)	> 100 µM (inactive)	> 100 µM (inactive)	> 100 µM (inactive)	–
C=C1N(C=O)C(C)(C)N(O)C1(C)C	> 100 µM (inactive)	–	29.1 µM (inactive)	> 100 µM (inactive)	> 100 µM (inactive)	> 100 µM (inactive)	> 100 µM (inactive)	> 100 µM (inactive)	> 100 µM (inactive)	> 100 µM (inactive)	> 100 µM (inactive)	> 100 µM (inactive)	> 100 µM (inactive)	> 100 µM (inactive)	> 100 µM (inactive)	> 100 µM (inactive)	> 100 µM (inactive)	> 100 µM (inactive)	–
C/C=C/C=C/c1nc(C#N)c(N)o1	> 100 µM (inactive)	41.6 µM (inactive)	63.8 µM (inactive)	99.3 µM (inactive)	> 100 µM (inactive)	> 100 µM (inactive)	> 100 µM (inactive)	36.6 µM (inactive)	> 100 µM (inactive)	> 100 µM (inactive)	> 100 µM (inactive)	> 100 µM (inactive)	> 100 µM (inactive)	> 100 µM (inactive)	> 100 µM (inactive)	> 100 µM (inactive)	> 100 µM (inactive)	> 100 µM (inactive)	–
CN[C@@H](C)[C@H](NC)c1ccccc1	–	> 100 µM (inactive)	> 100 µM (inactive)	> 100 µM (inactive)	> 100 µM (inactive)	–	> 100 µM (inactive)	–	> 100 µM (inactive)	> 100 µM (inactive)	> 100 µM (inactive)	> 100 µM (inactive)	> 100 µM (inactive)	> 100 µM (inactive)	–	> 100 µM (inactive)	> 100 µM (inactive)	> 100 µM (inactive)	–
CSc1nc(Cl)c2c(n1)Sc1ncnn1C2O (stereo unspecified)	21.8 µM (inactive)	2.43 µM (inactive)	6.7 µM (inactive)	19.8 µM (inactive)	0.318 µM (active)	15 µM (inactive)	6.37 µM (inactive)	13.6 µM (inactive)	–	2.88 µM (inactive)	18.9 µM (inactive)	17.2 µM (inactive)	–	12.7 µM (inactive)	–	–	28 µM (inactive)	13.6 µM (inactive)	20 µM (inactive)
CNC(=S)N(C1CCCCC1)C1CCCCC1	> 100 µM (inactive)	–	37.3 µM (inactive)	56.9 µM (inactive)	> 100 µM (inactive)	90.6 µM (inactive)	> 100 µM (inactive)	35.1 µM (inactive)	35.7 µM (inactive)	> 100 µM (inactive)	> 100 µM (inactive)	34.8 µM (inactive)	> 100 µM (inactive)	70.6 µM (inactive)	44 µM (inactive)	65.3 µM (inactive)	> 100 µM (inactive)	> 100 µM (inactive)	–
O=C1C=C(Br)c2c(Br)sc(Br)c21	24.9 µM (inactive)	2.07 µM (inactive)	2.77 µM (inactive)	24.5 µM (inactive)	5.13 µM (inactive)	18 µM (inactive)	2.37 µM (inactive)	10.9 µM (inactive)	2.99 µM (inactive)	3.13 µM (inactive)	5.35 µM (inactive)	18 µM (inactive)	32.5 µM (inactive)	12 µM (inactive)	7.13 µM (inactive)	18.3 µM (inactive)	17.7 µM (inactive)	13.8 µM (inactive)	–
Nn1c(Cc2ccc([N+](=O)[O-])cc2)n[nH]c1=O	> 100 µM (inactive)	> 100 µM (inactive)	> 100 µM (inactive)	> 100 µM (inactive)	> 100 µM (inactive)	> 100 µM (inactive)	> 100 µM (inactive)	> 100 µM (inactive)	> 100 µM (inactive)	> 100 µM (inactive)	> 100 µM (inactive)	> 100 µM (inactive)	> 100 µM (inactive)	> 100 µM (inactive)	> 100 µM (inactive)	> 100 µM (inactive)	> 100 µM (inactive)	> 100 µM (inactive)	–
COc1cccc2c1C(=O)c1c(O)c3c(c(O)c1C2=O)CC(O)(C(C)=O)CC3OC1OC(COC(C)=O)C(OC(C)=O)C(OC(C)=O)C1OC(C)=O (stereo unspecified)	10.2 µM (inactive)	> 100 µM (inactive)	12.8 µM (inactive)	> 100 µM (inactive)	16.8 µM (inactive)	18 µM (inactive)	29.9 µM (inactive)	> 100 µM (inactive)	–	> 100 µM (inactive)	16.3 µM (inactive)	0.116 µM (active)	–	–	38.8 µM (inactive)	9.29 µM (inactive)	16 µM (inactive)	–	–
CC(O[Si](c1ccccc1)(c1ccccc1)C(C)(C)C)[C@H](NC(=O)OC(C)(C)C)C(=O)O[Si](c1ccccc1)(c1ccccc1)C(C)(C)C (stereo partly specified)	18.2 µM (inactive)	–	10.6 µM (inactive)	11 µM (inactive)	–	1.46 µM (inactive)	–	8.38 µM (inactive)	10.9 µM (inactive)	16.1 µM (inactive)	14.9 µM (inactive)	11.9 µM (inactive)	–	12.4 µM (inactive)	5.41 µM (inactive)	15.4 µM (inactive)	15.5 µM (inactive)	15.9 µM (inactive)	> 10 µM (inactive)
CCCCCCNC(=O)c1cc(C#Cc2cc(OC)ccc2OC)ccc1OC	–	6.15 µM (inactive)	4.84 µM (inactive)	> 100 µM (inactive)	–	> 100 µM (inactive)	> 100 µM (inactive)	62.1 µM (inactive)	8.28 µM (inactive)	8.49 µM (inactive)	72.1 µM (inactive)	58.9 µM (inactive)	–	> 100 µM (inactive)	2.31 µM (inactive)	–	> 100 µM (inactive)	1.93 µM (inactive)	> 100 µM (inactive)
COc1cc([C@@H]2c3cc4c(c(O)c3C[C@H]3COC(=O)[C@@H]32)OCO4)cc(OC)c1OC [BETA-PELTATIN A]	0.323 µM (active)	0.0676 µM (active)	0.015 µM (active)	0.015 µM (active)	–	0.0627 µM (active)	0.0267 µM (active)	0.0241 µM (active)	0.015 µM (active)	0.015 µM (active)	0.015 µM (active)	0.282 µM (active)	0.302 µM (active)	0.015 µM (active)	51.9 µM (inactive)	1.61 µM (inactive)	0.015 µM (active)	0.015 µM (active)	–
